# Results as given in publication PMC9065035, “Structural basis for the synthesis of the core 1 structure by C1GalT1” (Nature Communications, 2022).
# How the values were obtained:
# DmC1GalT1^T43-Q388 [1] = target: T1, DmC1GalT1^T43-Q388 (Drosophila melanogaster, UniProt Q7K237); assay: UDP-Glo glycosylation kinetics of DmC1GalT1 T43-Q388; conditions: 500 µM UDP-Gal
# DmC1GalT1^T43-Q388 [2] = target: T1, DmC1GalT1^T43-Q388; assay: STD NMR experiments; format: binding; set-up: made in house; conditions: presence of UDP ([…]) and 150 µM MnCl2; 20 µM enzyme, 710 µM ligand
# Procedure: STD NMR experiments were performed using a 1:35 molar ratio, defined by 20 μM DmC1GalT1^T43-Q388 and 710 μM ligands (α-O-methyl-GalNAc, and (glyco)peptides), and 25 mM Tris(D11)-DCl buffer, pD 7.5, with 150 mM NaCl and 150 µM MnCl2 in D2O. […] In the presence of 150 µM MnCl2, strong paramagnetic relaxation enhancements are observed for UDP, which prevents the observation of UDP proton signals in the NMR spectra. […] STD NMR spectra (stddiffesgp pulse sequence from Bruker pulse program library) were acquired with 1728 scans and 64 K data points, in a spectral window of 12335.53 Hz centered at 2818 Hz. Selective saturation (on resonance) was performed by irradiating at 7 and/or −0.5 ppm (depending if the ligand contains or not aromatic residues) using a series of 40 Eburp2.1000-shaped (from Bruker shaped pulses library) 90° pulses (50 ms) for a total saturation time of 2 s, and a relaxation delay of 4 s. For the reference spectrum (off resonance), the samples were irradiated at 100 ppm. Proper control experiments were performed for each ligand in the absence of protein and residual STD signals of the methyl groups of Ala/Thr were observed. […] Protein control experiments were also accomplished using DmC1GalT1^T43-Q388 in absence of a ligand and also subtracted from STD experiment. The STD spectrum (ISTD) was obtained by subtracting the on-resonance spectrum (Ion) to the off-resonance spectrum (Ioff). The % of STD (ISTD/Ioff × 100) was estimated by comparing the intensity of the signals in the STD spectrum (ISTD) with the signal intensities of the reference spectrum (Ioff). The STD amplification factor (STDAF) was also estimated by multiplying the % STD values by the ligand excess, which in the case of our experiments was 35 for every ligand. To determine the STD-derived epitope map the relative % of STD were calculated by setting to 100% the STD signal of the proton with the highest STD intensity and calculating the others accordingly (Supplementary Tables 2–4). Some protons were not able to be assessed with accuracy due to the use of water suppression or low signal/noise ratio and display a blue circle in the STD-derived epitope maps. Moreover, the resonances overlapped on the ^1H-NMR spectrum were considered in STD estimation and are labelled as *.
# DmC1GalT1^T43-Q388 [3] = target: T1, DmC1GalT1^T43-Q388; assay: Isothermal titration calorimetry (ITC); format: binding; set-up: made in house
# Procedure: ITC was used to characterize the interaction of DmC1GalT1^T43-Q388 with UDP, APDT*RP with and without UDP, APDTRP with UDP, and P4/P7 with and without UDP. All experiments were carried out in an Auto-iTC200 (Microcal, GE Healthcare) at 20 °C. The titration of DmC1GalT1^T43-Q388 with UDP was carried out at 100 μM of the enzyme with 800 μM UDP in 25 mM TRIS pH 7.5, 150 mM NaCl and 1 mM MnCl2. The titrations with APDT*RP and P4/P7 in the absence of UDP were carried out at 60 μM of the enzyme with 2 mM P4/P7 in 25 mM TRIS pH 7.5, 150 mM NaCl and 1 mM MnCl2. To determine the Kds for APDT*RP, APDTRP and P4/P7 under an excess of UDP, the experiments were made in 25 mM TRIS pH 7.5, 150 mM NaCl, 1 mM UDP and 1 mM MnCl2. The concentration of the enzyme was 60 μM for the titrations of APDT*RP and APDTRP and 50 μM for the titration with P4/P7. The concentration of the (glyco)peptides was 2 mM in all the ITC experiments. The experiments were performed in duplicate. Data integration, correction and analysis were carried out in Origin 7 (Microcal). The data were fit to a one-site equilibrium-binding model. Stoichiometry (n) of binding in all cases was ~1:1 except for UDP whose n = 0.4.
# [4] = Activity of DmC1GalT1 mutants (UDP-Glo); format: biochemical, Drosophila melanogaster; conditions: 500 µM UDP-Gal, 500 µM APDT*RP
# From the text: The DNA sequence encoding amino acid residues of the DmC1GalT1 (aa T43-Q388) was codon optimized and synthesized by GenScript (USA) for expression in HEK293 cells (GIBCO). The construct, containing at the 5′-end a recognition sequence for AgeI, and at the 3′-end a recognition sequence for KpnI, was cloned into a pHLSec plasmid that contained a sequence encoding a 6xHis tag at the 3′-end followed by a stop codon, rendering the vector pHLSec-DmC1GalT1-6His. The cloning of the construct into pHLSec was performed by GenScript. All mutants in DmC1GalT1 (R152A, Y213A, Y218A, D255A, W300A and Y325A) were generated following a standard site-directed mutagenesis protocol by GenScript using the vector pHLSec-DmC1GALT1-6His. pHLSec-DmC1GalT1-6His and all the plasmids encoding for the different mutants were transfected into HEK293 cell line as described below. For DNA amplification, all plasmids were transformed in E. coli DH5α cells and extracted with PureLink™ Expi Endotoxin-Free Giga Plasmid Purification Kit (Invitrogen) according to the manufacturer’s instructions. Cells were grown in suspension in a humidified 37 °C and 8% CO2 incubator with rotation at 125 rpm. Transfection was performed at a cell density of 2.5 × 10^6 cell/mL in fresh media F17 serum-free media (Gibco) with 2% Glutamax and 0.1% Kolliphor® P 188. For each 150 mL of culture, 450 μg of the plasmid (1 μg/μL) was mixed with 135 μL of sterilized 1.5 M NaCl. This mixture was added to each 150 mL cell culture flask and incubated for 5 min in the incubator. […] Cells were diluted 1:1 with pre-warmed media supplemented with valproic acid 24 h post-transfection to a final concentration of 2.2 mM. Then, cells were harvested 6 days post-transfection by spinning down at 300 × g for 5 min, after which the supernatants were collected and centrifuged at 4000 × g for 15 min. Supernatant was dialyzed against buffer A and loaded into a His-Trap Column (GE Healthcare). Protein was eluted with an imidazol gradient in buffer A from 10 mM up to 400 mM. Buffer exchange to buffer C was carried out using a HiPrep 26/10 Desalting Column (GE Healthcare). The isolated DmC1GalT1-His and its mutants were then loaded in HiLoad 26/60 Superdex 75 Colum (GE Healthcare), previously equilibrated with buffer C.
# [5] = excess UDP (1 mM), 1 mM MnCl2, 20 °C
# T1 sequence (Q7K237 43-388): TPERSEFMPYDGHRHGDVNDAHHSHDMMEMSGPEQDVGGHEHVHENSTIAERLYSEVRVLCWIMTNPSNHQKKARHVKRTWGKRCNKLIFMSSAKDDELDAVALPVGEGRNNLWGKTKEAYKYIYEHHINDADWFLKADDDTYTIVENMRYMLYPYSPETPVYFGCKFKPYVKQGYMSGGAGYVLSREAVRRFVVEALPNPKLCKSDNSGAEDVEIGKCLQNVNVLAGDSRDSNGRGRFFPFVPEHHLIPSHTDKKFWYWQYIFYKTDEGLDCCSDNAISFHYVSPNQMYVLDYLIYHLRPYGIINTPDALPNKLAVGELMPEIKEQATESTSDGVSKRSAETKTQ
substance,measurement,setting,value
APDTRP,activity as acceptor substrate,DmC1GalT1^T43-Q388 [1],inactive
same,Km app,"DmC1GalT1^T43-Q388 [1]; acceptor substrate varied (P1–P7 12.5–500 µM; APDT*RP/APDS*RP 12.5–1000 µM; α-O-methyl-GalNAc up to 2 mM), 500 nM enzyme, 25 mM Tris pH 7.5, 150 mM NaCl, 50 µM MnCl2, 1 mg/ml BSA, 30 min 37 °C, Michaelis–Menten fit ± standard error, n = 2",not active
same,kcat app,"DmC1GalT1^T43-Q388 [1]; acceptor varied, 500 nM enzyme, pH 7.5, 30 min 37 °C, Michaelis–Menten fit ± standard error, n = 2",not active
same,kcat app/Km app (catalytic efficiency),"DmC1GalT1^T43-Q388 [1]; acceptor varied, 500 nM enzyme, pH 7.5, 30 min 37 °C, ± standard error, n = 2",not active
same,Km,"DmC1GalT1^T43-Q388 [1]; read-out: Km app, acceptor substrate varied (P1–P7 12.5–500 µM; APDT*RP/APDS*RP 12.5–1000 µM; α-O-methyl-GalNAc up to 2 mM), 500 nM enzyme, 25 mM Tris pH 7.5, 150 mM NaCl, 50 µM MnCl2, 1 mg/ml BSA, 30 min 37 °C, Michaelis–Menten fit ± standard error, n = 2",~50 µM
same,STD response,DmC1GalT1^T43-Q388 [2],did not display STD response
same,Kd,"DmC1GalT1^T43-Q388 [3]; excess UDP (1 mM UDP, 1 mM MnCl2), 2 mM (glyco)peptide, 50–60 µM enzyme, 25 mM TRIS pH 7.5, 150 mM NaCl, 20 °C, one-site fit ± fit error, n = 2",Not measurable under our conditions
same,-TΔS,DmC1GalT1^T43-Q388 [3]; [5],Not measurable under our conditions
same,n (stoichiometry of binding),DmC1GalT1^T43-Q388 [3]; [5],Not measurable under our conditions
same,ΔG,DmC1GalT1^T43-Q388 [3]; [5],Not measurable under our conditions
same,ΔH,DmC1GalT1^T43-Q388 [3]; [5],Not measurable under our conditions
same,binding by ITC,DmC1GalT1^T43-Q388 [3]; presence of an excess of UDP,no binding
R152A: DmC1GalT1 Ala mutant of Arg152,decrease in activity with respect to the WT,[4],15 fold
W300A: DmC1GalT1 Ala mutant of Trp300,activity of the mutant,[4],inactive
Y213A: DmC1GalT1 Ala mutant of Tyr213,decrease in activity with respect to the WT,[4],25 fold
Y218A: DmC1GalT1 Ala mutant of Tyr218,activity of the mutant,[4],inactive
Y325A: DmC1GalT1 Ala mutant of Tyr325,decrease in activity with respect to the WT,[4],25 fold
